# Target: T1, purified human Factor XIa (Homo sapiens, UniProt P03951)
# T1 construct: purified human Factor XIa; purchased Sekisui Diagnostics
# Experiment: Factor XIa Assay
# Type: biochemical
# Conditions: purified human Factor XIa 40 pM; substrate Z-Gly-Pro-Arg-AFC 100 μM; 50 mM HEPES pH 7.4; read-out: Hu FXIa Ki
# Protocol: The effectiveness of a compound of the present invention as an inhibitor of Coagulation Factor XIa can be determined using a relevant purified serine protease, and an appropriate synthetic substrate. The rate of hydrolysis of the chromogenic or fluorogenic substrate by the relevant serine protease was measured both in the absence and presence of compounds of the present invention. Assays were conducted at room temperature or at 37° C. […] A decrease in the rate of fluorescence change in the presence of inhibitor is indicative of enzyme inhibition. Such methods are known to one skilled in the art. The results of this assay are expressed as the inhibitory constant, Ki.
# Factor XIa determinations were made in 50 mM HEPES buffer at pH 7.4 containing 150 mM NaCl, 5 mM CaCl2, and 0.1% PEG 8000 (polyethylene glycol; JT Baker or Fisher Scientific). Determinations were made using purified human Factor XIa at a final concentration of 40 pM (Sekisui Diagnostics) and he synthetic substrate, Z-Gly-Pro-Arg-AFC, TFA salt (Sigma #C0980) at a concentration of 100 μM.
# Activity assays were performed by diluting a stock solution of substrate at least tenfold to a final concentration ≤0.1 Km into a solution containing enzyme or enzyme equilibrated with inhibitor. Times required to achieve equilibration between enzyme and inhibitor were determined in control experiments. Initial velocities of product formation in the absence (Vo) or presence of inhibitor (Vi) were measured. Assuming competitive inhibition, and that unity is negligible compared Km/[S], [I]/e, and [I]/e (where [S], [I], and e respectively represent the total concentrations, of substrate, inhibitor and enzyme), the equilibrium constant (Ki) for dissociation of the inhibitor from the enzyme can be obtained from the dependence of Vo/Vi on [I] shown in the following equation. Vo/Vi=1+[I]/Ki
# The activities shown by this assay indicate that the compounds of the invention may be therapeutically useful for treating or preventing various cardiovascular and/or cerebrovascular thromboembolic conditions in patients suffering from unstable angina, acute coronary syndrome, refractory angina, myocardial infarction, transient ischemic attacks, atrial fibrillation, stroke such as thrombotic stroke or embolic stroke, venous thrombosis, coronary and cerebral arterial thrombosis, cerebral and pulmonary embolism, atherosclerosis, deep vein thrombosis, disseminated intravascular coagulation, and reocclusion or restenosis of recanalized vessels. The Ki values measured for each of the example compounds of the invention using this assay are reported in the tables above (as “Hu FXIa Ki (nM)”).
# T1 sequence (P03951 388-625 limits assumed): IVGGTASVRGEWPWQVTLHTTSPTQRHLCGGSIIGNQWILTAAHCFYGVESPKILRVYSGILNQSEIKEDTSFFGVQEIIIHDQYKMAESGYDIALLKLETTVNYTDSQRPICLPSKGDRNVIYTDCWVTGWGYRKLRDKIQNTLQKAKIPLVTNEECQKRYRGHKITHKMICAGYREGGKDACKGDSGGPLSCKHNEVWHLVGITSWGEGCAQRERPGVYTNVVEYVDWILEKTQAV
# T1 sequence (P03951 19-387 partner limits assumed): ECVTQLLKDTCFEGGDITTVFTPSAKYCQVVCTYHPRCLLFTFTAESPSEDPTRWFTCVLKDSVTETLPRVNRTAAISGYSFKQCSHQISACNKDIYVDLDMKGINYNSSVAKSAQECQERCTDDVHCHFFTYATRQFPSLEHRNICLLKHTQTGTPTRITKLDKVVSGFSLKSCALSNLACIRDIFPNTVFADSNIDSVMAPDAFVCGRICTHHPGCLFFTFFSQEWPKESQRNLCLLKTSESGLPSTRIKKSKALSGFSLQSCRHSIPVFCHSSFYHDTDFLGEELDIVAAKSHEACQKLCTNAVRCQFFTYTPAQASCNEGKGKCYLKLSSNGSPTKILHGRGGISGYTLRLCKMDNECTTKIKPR
row,Ki [nM],Compound
1,> 875,"COC(=O)Nc1ccc2c(c1)NC(=O)CCCCC[C@H](C(=O)N1CCC[C@@]3(C1)OC(=O)Nc1ccc(Cl)cc13)c1cc-2ccn1 [Example 16a, methyl ((S)-10-((R)-6-chloro-2-oxo-1,2-dihydrospiro[benzo[d][1,3]oxazine-4,3′-piperidine]-1′-carbonyl)-4-oxo-3-aza-1(4,2)-pyridina-2(1,2)-benzenacyclodecaphane-2^4-yl)carbamate]"
2,284,"COC(=O)Nc1ccc2c(c1)NC(=O)CCCCC[C@@H](C(=O)N1CCC[C@@]3(C1)OC(=O)Nc1ccc(Cl)cc13)c1cc-2ccn1 [Example 16b, methyl ((R)-10-((R)-6-chloro-2-oxo-1,2-dihydrospiro[benzo[d][1,3]oxazine-4,3′-piperidine]-1′-carbonyl)-4-oxo-3-aza-1(4,2)-pyridina-2(1,2)-benzenacyclodecaphane-2^4-yl)carbamate]"
3,> 8750,"COC(=O)Nc1ccc2c(c1)NC(=O)CCCC[C@H](C(=O)N1CC[C@@]3(C1)OC(=O)Nc1ccc(Cl)cc13)c1cc-2ccn1 [Example 17b, methyl ((S)-9-((R)-6-chloro-2-oxo-1,2-dihydrospiro[benzo[d][1,3]oxazine-4,3′-pyrrolidine]-1′-carbonyl)-4-oxo-3-aza-1(4,2)-pyridina-2(1,2)-benzenacyclononaphane-2^4-yl)carbamate]"
4,198,"COC(=O)Nc1ccc2c(c1)NC(=O)CCCCC[C@H](C(=O)N1CC[C@@]3(C1)OC(=O)Nc1ccc(Cl)c(F)c13)c1cc-2ccn1 [Example 18b, methyl ((S)-10-((R)-6-chloro-5-fluoro-2-oxo-1,2-dihydrospiro[benzo[d][1,3]oxazine-4,3′-pyrrolidine]-1′-carbonyl)-4-oxo-3-aza-1(4,2)-pyridina-2(1,2)-benzenacyclodecaphane-2^4-yl)carbamate]"
5,49,"COC(=O)Nc1ccc2c(c1)NC(=O)CCCCC[C@@H](C(=O)N1CCC[C@@]3(C1)OC(=O)Nc1ccc(Cl)c(F)c13)c1cc-2ccn1 [Example 19a, methyl ((R)-10-((R)-6-chloro-5-fluoro-2-oxo-1,2-dihydrospiro[benzo[d][1,3]oxazine-4,3′-piperidine]-1′-carbonyl)-4-oxo-3-aza-1(4,2)-pyridina-2(1,2)-benzenacyclodecaphane-2^4-yl)carbamate]"
6,> 875,"COC(=O)Nc1ccc2c(c1)NC(=O)CCCCC[C@H](C(=O)N1CCC[C@@]3(C1)OC(=O)Nc1ccc(Cl)c(F)c13)c1cc-2ccn1 [Example 19b, methyl ((S)-10-((R)-6-chloro-5-fluoro-2-oxo-1,2-dihydrospiro[benzo[d][1,3]oxazine-4,3′-piperidine]-1′-carbonyl)-4-oxo-3-aza-1(4,2)-pyridina-2(1,2)-benzenacyclodecaphane-2^4-yl)carbamate]"
7,211,"Nc1ccc2c(c1)NC(=O)CC/C=C\C[C@@H](C(=O)N1CCC[C@@]3(C1)OC(=O)Nc1ccc(Cl)c(F)c13)c1cc-2ccn1 [Example 20a, (R)-1′-((R,Z)-2^4-amino-4-oxo-3-aza-1(4,2)-pyridina-2(1,2)-benzenacyclodecaphan-7-ene-10-carbonyl)-6-chloro-5-fluorospiro[benzo[d][1,3]oxazine-4,3′-piperidin]-2(1H)-one]"
8,> 875,"COC(=O)Nc1ccc2c(c1)NC(=O)CC/C=C/C[C@H](C(=O)N1CCC[C@@]3(C1)OC(=O)Nc1ccc(Cl)c(F)c13)c1cc-2ccn1 [Example 21b, methyl ((S,E)-10-((R)-6-chloro-5-fluoro-2-oxo-1,2-dihydrospiro[benzo[d][1,3]oxazine-4,3′-piperidine]-1′-carbonyl)-4-oxo-3-aza-1(4,2)-pyridina-2(1,2)-benzenacyclodecaphanen-2^4-yl)carbamate]"
9,> 875,"COC(=O)Nc1ccc2c(c1)NC(=O)CC/C=C\C[C@H](C(=O)N1CCC[C@@]3(C1)OC(=O)Nc1ccc(Cl)c(F)c13)c1cc-2ccn1 [Example 22b, methyl ((S,Z)-10-((R)-6-chloro-5-fluoro-2-oxo-1,2-dihydrospiro[benzo[d][1,3]oxazine-4,3′-piperidine]-1′-carbonyl)-4-oxo-3-aza-1(4,2)-pyridina-2(1,2)-benzenacyclodecaphanen-2^4-yl)carbamate]"
10,> 875,"COC(=O)Nc1ccc2c(c1)NC(=O)CCCCC(C(=O)N1CCC[C@@]3(C1)OC(=O)Nc1ccc(Cl)c(F)c13)c1cccc-2n1 (stereo partly drawn) [Example 24, methyl (9-((R)-6-chloro-5-fluoro-2-oxo-1,2-dihydrospiro[benzo[d][1,3]oxazine-4,3′-piperidine]-1′-carbonyl)-4-oxo-3-aza-1(2,6)-pyridina-2(1,2)-benzenacyclononaphane-2^4-yl)carbamate]"
11,> 875,"COC(=O)Nc1ccc2c(c1)NC(=O)CCCC[C@H](C(=O)N1CC[C@@]3(C1)OC(=O)Nc1ccc(Cl)c(F)c13)c1ccnc-2c1 [Example 25b, methyl ((S)-9-((R)-6-chloro-5-fluoro-2-oxo-1,2-dihydrospiro[benzo[d][1,3]oxazine-4,3′-pyrrolidine]-1′-carbonyl)-4-oxo-3-aza-1(2,4)-pyridina-2(1,2)-benzenacyclononaphane-2^4-yl)carbamate]"
12,222,"COC(=O)Nc1ccc2c(c1)NC(=O)CCCC[C@@H](C(=O)N1CCC[C@@]3(C1)OC(=O)Nc1ccc(Cl)cc13)c1cc(F)cc-2c1 [Example 29a, methyl ((R)-9-((R)-6-chloro-2-oxo-1,2-dihydrospiro[benzo[d][1,3]oxazine-4,3′-piperidine]-1′-carbonyl)-1^5-fluoro-4-oxo-3-aza-1(1,3),2(1,2)-dibenzenacyclononaphane-2^4-yl)carbamate]"
13,> 8750,"COC(=O)Nc1ccc2c(c1)NC(=O)CCCC[C@H](C(=O)N1CCC[C@@]3(C1)OC(=O)Nc1ccc(Cl)cc13)c1cc(F)cc-2c1 [Example 29b, methyl ((S)-9-((R)-6-chloro-2-oxo-1,2-dihydrospiro[benzo[d][1,3]oxazine-4,3′-piperidine]-1′-carbonyl)-1^5-fluoro-4-oxo-3-aza-1(1,3),2(1,2)-dibenzenacyclononaphane-2^4-yl)carbamate]"
14,> 8750,"COC(=O)Nc1ccc2c(c1)NC(=O)CCCC[C@H](C(=O)N1CCC[C@@]3(C1)OC(=O)Nc1ccc(Cl)c(F)c13)c1cc(F)cc-2c1 [Example 30a, methyl ((S)-9-((R)-6-chloro-5-fluoro-2-oxo-1,2-dihydrospiro[benzo[d][1,3]oxazine-4,3′-piperidine]-1′-carbonyl)-1^5-fluoro-4-oxo-3-aza-1(1,3),2(1,2)-dibenzenacyclononaphane-2^4-yl)carbamate]"
15,136,"COC(=O)Nc1ccc2c(c1)NC(C(=O)O)CCCCC(C(=O)N1CCC[C@@]3(C1)OC(=O)Nc1ccc(Cl)c(F)c13)c1nc-2c[nH]1 (stereo partly drawn) [Example 33, (Z)-9-((R)-6-chloro-5-fluoro-2-oxo-1,2-dihydrospiro[benzo[d][1,3]oxazine-4,3′-piperidine]-1′-carbonyl)-2^4-((methoxycarbonyl)amino)-1^1H-3-aza-1(4,2)-imidazola-2(1,2)-benzenacyclononaphane-4-carboxylic acid]"
16,455,"COC(=O)Nc1ccc2c(c1)NC(=O)[C@@H](C)CCC[C@H](NC(=O)N1CCC[C@@]3(C1)OC(=O)Nc1ccc(Cl)cc13)c1cc-2ccn1 [Example 39, methyl ((5S,9S)-9-((R)-6-chloro-2-oxo-1,2-dihydrospiro[benzo[d][1,3]oxazine-4,3′-piperidine]-1′-carboxamido)-5-methyl-4-oxo-3-aza-1(4,2)-pyridina-2(1,2)-benzenacyclononaphane-2^4-yl)carbamate]"
17,> 5000,"COC(=O)Nc1ccc2c(c1)NC(=O)[C@H](C)CCC[C@H](NC(=O)N1CCC[C@@]3(C1)OC(=O)Nc1ccc(Cl)cc13)c1cc-2ccn1 [Example 40, methyl ((5R,9S)-9-((R)-6-chloro-2-oxo-1,2-dihydrospiro[benzo[d][1,3]oxazine-4,3′-piperidine]-1′-carboxamido)-5-methyl-4-oxo-3-aza-1(4,2)-pyridina-2(1,2)-benzenacyclononaphane-2^4-yl)carbamate]"
18,180,"(R)-6-chloro-1′-((R,Z)-2^4-fluoro-4-oxo-11H-3-aza-1(4,2)-imidazola-2(1,2)-benzenacyclononaphane-9-carbonyl)spiro[benzo[d][1,3]oxazine-4,3′-pyrrolidin]-2(1H)-one [Example 5b]"

# From US10344039B2, “Macrocyclic spirocarbamate derivatives as factor XIa inhibitors, pharmaceutically acceptable compositions and their use” (MERCK SHARP & DOHME CORP., priority 2015, dated 2019)
